Results: PubChem BioAssay AID2060901 (Molecular Pharmacology Branch, DTP, NCI, 2025)

Tested on: 422866-222-R5-J1-PDC complex spheroids viability
Test: Anticancer human tumor 422866-222-R5-J1-PDC patient-derived pancreatic adenocarcinoma cell line growth inhibition [RAS]
Conditions: for viability, T/C: stronger effect = lower value
Summary of the method: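 Multi-cell-type spheroids: tumor cells plus HUVEC endothelial cells and mesenchymal stem cells. RAS-pathway inhibitors were combined with targeted agents, each dosed in half-log steps down from clinical Cmax, or from 10 microM when Cmax was unknown.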
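Further: spheroids exposed to compounds for 7 days.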
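Wherever viability, T/C is given: 100% = DMSO vehicle control viability.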

CCc1c2c(nc3ccc(O)cc13)-c1cc3c(c(=O)n1C2)COC(=O)[C@]3(O)CC + C#Cc1c(F)ccc2cc(O)cc(-c3ncc4c(N5CC6CCC(C5)N6)nc(OCC56CCCN5CC(F)C6)nc4c3F)c12
IC50 (curve of first compound, second compound 0.0316 µM): 2850 pM
IC50 (curve of first compound, second compound 0.1 µM): 2740 pM
IC50 (curve of first compound, second compound 0.316 µM): 95200 pM
IC50 (curve of first compound, second compound 1 µM): < 949 pM
IC50 (curve of first compound, second compound 3.16 µM): < 949 pM
IC50 (curve of first compound, second compound 10 µM): < 949 pM
viability, T/C (second compound 0.0316 µM, first compound 0.000949 µM): 80.6%
viability, T/C (second compound 0.0316 µM, first compound 0.003 µM): 49.4%
viability, T/C (second compound 0.0316 µM, first compound 0.00949 µM): 39.9%
viability, T/C (second compound 0.0316 µM, first compound 0.03 µM): 41.9%
viability, T/C (second compound 0.0316 µM, first compound 0.0949 µM): 48.5%
viability, T/C (second compound 0.0316 µM, first compound 0.3 µM): 45.5%
viability, T/C (second compound 0.1 µM, first compound 0.000949 µM): 75.2%
viability, T/C (second compound 0.1 µM, first compound 0.003 µM): 49.4%
viability, T/C (second compound 0.1 µM, first compound 0.00949 µM): 35.2%
viability, T/C (second compound 0.1 µM, first compound 0.03 µM): 49.8%
viability, T/C (second compound 0.1 µM, first compound 0.0949 µM): 58.4%
viability, T/C (second compound 0.1 µM, first compound 0.3 µM): 36.1%
viability, T/C (second compound 0.316 µM, first compound 0.000949 µM): 65.4%
viability, T/C (second compound 0.316 µM, first compound 0.003 µM): 36.4%
viability, T/C (second compound 0.316 µM, first compound 0.00949 µM): 49.8%
viability, T/C (second compound 0.316 µM, first compound 0.03 µM): 56.5%
viability, T/C (second compound 0.316 µM, first compound 0.0949 µM): 49.2%
viability, T/C (second compound 0.316 µM, first compound 0.3 µM): 34.7%
viability, T/C (second compound 1 µM, first compound 0.000949 µM): 48.6%
viability, T/C (second compound 1 µM, first compound 0.003 µM): 35.9%
viability, T/C (second compound 1 µM, first compound 0.00949 µM): 35.4%
viability, T/C (second compound 1 µM, first compound 0.03 µM): 38.2%
viability, T/C (second compound 1 µM, first compound 0.0949 µM): 53.3%
viability, T/C (second compound 1 µM, first compound 0.3 µM): 31.2%
viability, T/C (second compound 3.16 µM, first compound 0.000949 µM): 26.3%
viability, T/C (second compound 3.16 µM, first compound 0.003 µM): 28.7%
viability, T/C (second compound 3.16 µM, first compound 0.00949 µM): 22.4%
viability, T/C (second compound 3.16 µM, first compound 0.03 µM): 22.9%
viability, T/C (second compound 3.16 µM, first compound 0.0949 µM): 25.6%
viability, T/C (second compound 3.16 µM, first compound 0.3 µM): 25.1%
viability, T/C (second compound 10 µM, first compound 0.000949 µM): 23%
viability, T/C (second compound 10 µM, first compound 0.003 µM): 21%
viability, T/C (second compound 10 µM, first compound 0.00949 µM): 20.7%
viability, T/C (second compound 10 µM, first compound 0.03 µM): 18.1%
viability, T/C (second compound 10 µM, first compound 0.0949 µM): 19.5%
viability, T/C (second compound 10 µM, first compound 0.3 µM): 13.5%

CCc1c2c(nc3ccc(O)cc13)-c1cc3c(c(=O)n1C2)COC(=O)[C@]3(O)CC + CCn1c(-c2cccnc2C(C)OC)c2c3cc(ccc31)N1CCOC(CC(NC(=O)C(C(C)C)N(C)C(=O)C3(F)CCN(C(=O)C#CC(C)(C)N(C)C)CC3)C(=O)N3CCCC(N3)C(=O)OCC(C)(C)C2)C1
IC50 (curve of first compound, second compound 0.000949 µM): < 949 pM
IC50 (curve of first compound, second compound 0.003 µM): < 949 pM
IC50 (curve of first compound, second compound 0.00949 µM): < 949 pM
IC50 (curve of first compound, second compound 0.03 µM): < 949 pM
IC50 (curve of first compound, second compound 0.0949 µM): < 949 pM
IC50 (curve of first compound, second compound 0.3 µM): < 949 pM
viability, T/C (second compound 0.000949 µM, first compound 0.000949 µM): 28.2%
viability, T/C (second compound 0.000949 µM, first compound 0.003 µM): 22.7%
viability, T/C (second compound 0.000949 µM, first compound 0.00949 µM): 26.9%
viability, T/C (second compound 0.000949 µM, first compound 0.03 µM): 22%
viability, T/C (second compound 0.000949 µM, first compound 0.0949 µM): 19.6%
viability, T/C (second compound 0.000949 µM, first compound 0.3 µM): 15.6%
viability, T/C (second compound 0.003 µM, first compound 0.000949 µM): 24.8%
viability, T/C (second compound 0.003 µM, first compound 0.003 µM): 15.5%
viability, T/C (second compound 0.003 µM, first compound 0.00949 µM): 15.5%
viability, T/C (second compound 0.003 µM, first compound 0.03 µM): 14.1%
viability, T/C (second compound 0.003 µM, first compound 0.0949 µM): 15.5%
viability, T/C (second compound 0.003 µM, first compound 0.3 µM): 15.1%
viability, T/C (second compound 0.00949 µM, first compound 0.000949 µM): 22.1%
viability, T/C (second compound 0.00949 µM, first compound 0.003 µM): 17.7%
viability, T/C (second compound 0.00949 µM, first compound 0.00949 µM): 17.7%
viability, T/C (second compound 0.00949 µM, first compound 0.03 µM): 15%
viability, T/C (second compound 0.00949 µM, first compound 0.0949 µM): 14.6%
viability, T/C (second compound 0.00949 µM, first compound 0.3 µM): 12.3%
viability, T/C (second compound 0.03 µM, first compound 0.000949 µM): 19.5%
viability, T/C (second compound 0.03 µM, first compound 0.003 µM): 15.7%
viability, T/C (second compound 0.03 µM, first compound 0.00949 µM): 14.8%
viability, T/C (second compound 0.03 µM, first compound 0.03 µM): 13.9%
viability, T/C (second compound 0.03 µM, first compound 0.0949 µM): 13.2%
viability, T/C (second compound 0.03 µM, first compound 0.3 µM): 10.7%
viability, T/C (second compound 0.0949 µM, first compound 0.000949 µM): 15.9%
viability, T/C (second compound 0.0949 µM, first compound 0.003 µM): 13%
viability, T/C (second compound 0.0949 µM, first compound 0.00949 µM): 11.3%
viability, T/C (second compound 0.0949 µM, first compound 0.03 µM): 12.3%
viability, T/C (second compound 0.0949 µM, first compound 0.0949 µM): 11.1%
viability, T/C (second compound 0.0949 µM, first compound 0.3 µM): 9.62%
viability, T/C (second compound 0.3 µM, first compound 0.000949 µM): 13.9%
viability, T/C (second compound 0.3 µM, first compound 0.003 µM): 14.3%
viability, T/C (second compound 0.3 µM, first compound 0.00949 µM): 11.5%
viability, T/C (second compound 0.3 µM, first compound 0.03 µM): 10.7%
viability, T/C (second compound 0.3 µM, first compound 0.0949 µM): 10.3%
viability, T/C (second compound 0.3 µM, first compound 0.3 µM): 7%

C#Cc1c(F)ccc2cc(O)cc(-c3ncc4c(N5CC6CCC(C5)N6)nc(OCC56CCCN5CC(F)C6)nc4c3F)c12 (stereo not given)
viability, T/C (compound 0.0316 µM): 98.7% [middle of 8 runs]
viability, T/C (compound 0.316 µM): 67.4% [middle of 8 runs]
viability, T/C (compound 1 µM): 51.8% [middle of 8 runs]
viability, T/C (compound 3.16 µM): 37.3% [middle of 8 runs]
viability, T/C (compound 10 µM): 26.2% [middle of 8 runs]
IC50 (compound alone, run of 06/10/2024): 1.11 µM [middle of 8 runs]
